Assay results from BigSolDB 2.1.

CC(C)c1ccc2sc3ccccc3c(=O)c2c1
Conditions | solubility (mole fraction)
in 1,2-dichloroethane, 306.25 K | 0.392
in 1,2-dichloroethane, 309.15 K | 0.424
in 1,2-dichloroethane, 311.25 K | 0.455
in 1,2-dichloroethane, 315.15 K | 0.486
in 1,2-dichloroethane, 318.15 K | 0.516
in 1,2-dichloroethane, 321.15 K | 0.546
in 1,2-dichloroethane, 324.65 K | 0.572
in 1,2-dichloroethane, 326.85 K | 0.615
in 1,4-dioxane, 307.15 K | 0.34
in 1,4-dioxane, 310.15 K | 0.381
in 1,4-dioxane, 314.05 K | 0.429
in 1,4-dioxane, 317.15 K | 0.475
in 1,4-dioxane, 320.05 K | 0.512
in 1,4-dioxane, 323.15 K | 0.543
in 1,4-dioxane, 326.65 K | 0.589
in 1,4-dioxane, 329.85 K | 0.637
in acetone, 299.15 K | 0.126
in acetone, 303.15 K | 0.167
in acetone, 307.15 K | 0.219
in acetone, 310.15 K | 0.266
in acetone, 314.25 K | 0.319
in acetone, 317.15 K | 0.358
in acetone, 320.15 K | 0.383
in acetone, 323.15 K | 0.417
in ethanol, 305.65 K | 0.0424
in ethanol, 307.95 K | 0.0493
in ethanol, 309.65 K | 0.0557
in ethanol, 312.15 K | 0.0703
in ethanol, 315.15 K | 0.1
in ethanol, 318.15 K | 0.154
in ethanol, 321.15 K | 0.26
in ethyl acetate, 305.25 K | 0.192
in ethyl acetate, 308.15 K | 0.24
in ethyl acetate, 311.65 K | 0.283
in ethyl acetate, 314.15 K | 0.325
in ethyl acetate, 317.05 K | 0.355
in ethyl acetate, 320.15 K | 0.409
in ethyl acetate, 323.65 K | 0.461
in ethyl acetate, 327.15 K | 0.511
in methanol, 299.15 K | 0.00556
in methanol, 302.15 K | 0.00643
in methanol, 305.15 K | 0.00761
in methanol, 308.15 K | 0.00911
in methanol, 311.15 K | 0.0113
in methanol, 314.15 K | 0.0145
in methanol, 317.15 K | 0.0196
in methanol, 320.15 K | 0.0264
in toluene, 304.65 K | 0.332
in toluene, 308.15 K | 0.374
in toluene, 311.65 K | 0.412
in toluene, 315.15 K | 0.453
in toluene, 318.15 K | 0.489
in toluene, 321.05 K | 0.526
